Where only a bound is given, the exact number is not on record here.

The nature of series [1]: Quantum yield of singlet oxygen formation on irradiation in liposomes. The class given is physicochemical. The note with it: for Quantum yields of singlet oxygen (φΔ) formed on irradiation of hypericin analogs in liposomes: soya liposomes, DPBF, light of 420 nm; for singlet oxygen formed on irradiation in liposomes (in words): irradiation with visible light, bound to liposomes.

For series [2], the system named is non-enveloped viruses such as polio and rhino viruses. Conditions: Tang et al., Antiviral Res. 13:313 (1990); cited from earlier work.
Another series concerns Murine Friend Virus. The series can be described thus: Inhibition of Friend virus splenomegaly in BALB/c mice. The class given is in vivo. Conditions: single intravenous dose within 1 hour of infection, FIG. 2. The text has this: Antiretroviral Activity of Hypericin Analogs Against Murine Friend Virus in BALB/c Mice
Mice infected with Friend virus (FV) develop a virus induced erythroleukemia whose early manifestation is a 4-8 time enlargement of the spleen size (splenomegaly) within 10 days after infection with the virus. Inhibition of splenomegaly can be used to quantitate the antiretroviral activity of various compounds in vivo. In this experiment, mice, in groups of 3, were infected with Friend virus and hypericin analogs (0.5 ml of solution in PBS) were then administered intravenously within 1 hour of the infection in a single dose of 1, 10, 50 and 150 μg per mouse.

Series [3] has as its system Murine Radiation Leukemia Virus (Rad LV). The series can be described thus: Direct inactivation of murine radiation leukemia virus measured by inhibition of virus particle derived reverse transcriptase activity. The class given is biochemical. Conditions: 0.01 μg/ml; virus incubated with compound on ice 30 min; FIG. 1. The method, then:
Determination of Antiretroviral Activity of Hypericin Analogs by Monitoring the Direct Inactivation of Murine Radiation Leukemia Virus (Rad LV) Measured by the Inhibition of Virus Particle Derived Reverse Transcriptase Activity
Virus particles released into the growth medium of the AQR lymphoblastoid cell line which is infected with and producing RadLV, were exposed to hypericin and hypericin analogs. The virus and the substrate were incubated on ice for a period of 30 min., after which time the virus was precipitated by ultracentrifugation at 40,000 rpm for 1 hour in a Beckman ultracentrifuge, and analyzed for reverse transcriptase according to Stephenson et al., Virology 48:749 (1972). The results shown in FIG. 1 are expressed as counts per minute of tritiated-thymidine incorporation.

The conditions of series [4]: G. Lavie et al, J.N.Y. Acad. Sci. 616:556, 1990; cited from earlier work.

With “2-(2-Methoxyethoxy)ethyl Ester Analog of Hypericin [Example 5]”, the “Quantum yields of singlet oxygen (φΔ) formed on irradiation of hypericin analogs in liposomes” value in series [1] is given as 0.1.

Take “2-Methoxyethyl Ester Analog of Hypericin [Example 4]”: the “Quantum yields of singlet oxygen (φΔ) formed on irradiation of hypericin analogs in liposomes” value in series [1] is on record as 0.35.

On to `Cc1cc(O)c2c(=O)c3c(O)cc(O)c4c5c(O)cc(O)c6c(=O)c7c(O)cc(C)c8c1c2c(c34)c(c78)c65` [hypericin, Hypericin, reference compound], for which the “activity against non-enveloped viruses (in words)” value in series [2] was “not active”. Besides, the “singlet oxygen formed on irradiation in liposomes (in words)” value in series [1] is reported as “comparatively high”.

On to “Methyl Ester Analog of Hypericin [Example 1]”, for which the inhibition of splenomegaly in the series with Murine Friend Virus (10 μg per mouse) is reported as 65%. In series [1], the “Quantum yields of singlet oxygen (φΔ) formed on irradiation of hypericin analogs in liposomes” value was determined as 0.38. Further, in series [3], the “antiviral activity (inhibition of virus particle derived reverse transcriptase activity, tritiated-thymidine incorporation)” value is “antiviral activity”.

Turning to “n-butyl Ester Analog of Hypericin [Example 3]”, in the series with Murine Friend Virus (150 μg per mouse), the inhibition of splenomegaly was 70%. Moreover, in series [3], the “antiviral activity (inhibition of virus particle derived reverse transcriptase activity, tritiated-thymidine incorporation)” value is given as “antiviral activity”.

Turning to “n-propyl Ester Analog of Hypericin [Example 2]”, in the series on Murine Friend Virus (10 μg per mouse), the inhibition of splenomegaly is 47%.

Take “octahydroxy hypericin [R1, R2 = OH, reference compound]”: the “antiviral activity (in words)” value in series [4] is reported as “very weak antiviral activity”. In series [1], the “singlet oxygen formed on irradiation in liposomes (in words)” value is recorded as “did not produce detectable yields of singlet oxygen” and the “Quantum yields of singlet oxygen (φΔ) formed on irradiation of hypericin analogs in liposomes” value is on record as less than 0.01.

Values taken from patent US6576784B1, “Antiviral agents” (Yeda Research and Development Co. Ltd., priority 1993, dated 2003).
